Laboratory results from US6828475B1, “Nucleic acid sequences encoding a plant cytoplasmic protein involved in fatty acyl-CoA metabolism” (Calgene LLC, priority 1994, dated 2004).

How the values were obtained:
jojoba wax synthase = assay: Wax synthase assay in jojoba microsomal membrane fraction; format: biochemical; settings: for Wax synthase Activity, Acyl Group: 80 μM acyl-CoA substrate, 100 μM radiolabeled oleyl alcohol; for Wax synthase Activity, Acyl Group / Wax synthase Activity, Alcohol Group: microsomal membrane fraction; for Wax synthase Activity, Alcohol Group: 100 μM alcohol substrate, 40 μM radiolabeled eicosenoyl-CoA
Procedure: Wax synthase activity in a microsomal membrane preparation is measured by incubation of 40 μM [1-^14C] acyl-CoA (usually palmitoyl-CoA, sp. act. 5.1-5.6 mCi/mmol) and 200 μM oleyl alcohol with the sample to be assayed in a total volume of 0.25 ml. The incubation mixture also contains 20% w/v glycerol, 1 mM DTT, 0.5M NaCl and is buffered with 25 mM HEPES (4-[2-hydroxyethyl]-1-piperazineethane-sulfonic acid). HEPES, here and as referred to hereafter is added from a 1M stock solution adjusted to pH 7.5.
A substrate mixture is prepared in a glass vial, with oleyl alcohol being added immediately before use, and is added to samples. Incubation is carried out at 30° C. for one hour. The assay is terminated by placing the assay tube on ice and immediately adding 0.25 ml isopropanol:acetic acid (4:1 v/v). Unlabeled wax esters (0.1 mg) and oleyl alcohol (0.1 mg) are added as carriers. The [^14C] lipids are extracted by the scaled-down protocol of Hara and Radin (Anal. Biochem. (1978) 90:420). Four ml of hexane/isopropanol (3:2, v/v) is added to the terminated assay. The sample is vortexed, 2 ml of aqueous sodium sulphate solution (6.6% w/v) is added, and the sample is again vortexed.
1. Extensive Analysis: Following addition of the sodium sulphate and vortexing the sample, the upper organic phase is removed and the lower aqueous phase is washed with 4 ml hexane/isopropanol (7:2 v/v). The organic phases are pooled and evaporated to dryness under nitrogen. The lipid residue is resuspended in a small volume of hexane, and an aliquot is assayed for radioactivity by liquid scintillation counting. The remainder of the sample can be used for TLC analysis of the labeled classes and thereby give a measure of total wax produced.
For lipid class analysis the sample is applied to a silica TLC plate, and the plate is developed in hexane/diethyl ether/acetic acid (80:20:1 v/v/v). The distribution of radioactivity between the lipid classes, largely wax esters, free fatty acids, fatty alcohols, and polar lipids at the origin, is measured using an AMBIS radioanalytic imaging system (AMBIS Systems Inc., San Diego, Calif.). If necessary the individual lipid classes can be recovered from the TLC plate for further analysis. Reversed-phase TLC systems using C18 plates developed in methanol have also been used for the analysis.
2. Quick Analysis: Following addition of the sodium sulfate and vortexing the sample, a known percentage of the organic phase is removed and counted via liquid scintillation counting. This calculation is used to estimate the total counts in the organic phase. Another portion of the organic phase is then removed, dryed down under nitrogen, redissolved in hexane and spotted on TLC plates and developed and scanned as described for the detailed assay. In this manner the percentage of the total counts which are incorporated into wax is determined.
Acyl-CoA and alcohol substrates having varying carbon chain lengths and degrees of unsaturation were added to a microsomal membrane fraction having wax synthase activity to determine the range of substrates recognized by the jojoba wax synthase. Wax synthase activity was measured as described in Example 1, with acyl specificity measured using 80 μM of acyl-CoA substrate and 100 μM of radiolabeled oleyl alcohol. Alcohol specificity was measured using 100 μM of alcohol substrate and 40 μM of radiolabeled eicosenoyl-CoA.

[1] = test system: NADH-dependent fatty acyl-CoA reductase; assay: NADH-dependent fatty acyl-CoA reductase assay, solubilized microsomal membranes; format: biochemical, Euglena gracilis; settings: in the assay at levels above the CMC (approximately 0.5% (w/v))
Procedure: For example, an NADH-dependent fatty acyl-CoA reductase activity can be obtained from microsomal membranes isolated from Euglena gracilis. Methods which may be used to isolate microsomal membranes are described, for example in the published PCT patent application WO 92/14816 (application number PCT/US92/03164, filed Feb. 21, 1992). The reductase activity is solubilized from these membranes using the same approaches as used for jojoba reductase and wax synthase. Membranes are incubated on ice for one hour with various amounts of the detergent, CHAPS, in a buffering solution consisting of 25 mM BisTris, pH 6.9, 250 mM NaCl, 10% glycerol and 1 mM EDTA. The sample is then centrifuged at 200,000×g for one hour, and the supernatant and pellet fractions assayed for NADH-dependent reductase activity using radiolabeled palmitoyl-CoA and NADH as substrates. A convenient assay for reductase activity is described in PCT patent application WO 92/14816. Incubation of the membranes with 0.3, 0.5 or 0.7 % (w/v) CHAPS results in retention of reductase activity in the supernatant fractions, indicative of solubilization of the enzyme. If CHAPS is omitted during the incubation and centrifugation, all of the reductase activity is found in the pellet fraction. All of the samples are diluted ten-fold in this same buffer solution prior to assaying in order to dilute the CHAPS present during the incubation.

`CCCCCCCCCCCC(=O)SCCNC(=O)CCNC(=O)[C@H](O)C(C)(C)COP(=O)(O)OP(=O)(O)OC[C@H]1O[C@@H](n2cnc3c(N)ncnc32)[C@H](O)[C@@H]1OP(=O)(O)O` [12:0] was tested, and the “Wax synthase Activity, Acyl Group” value (jojoba wax synthase) was 12 pmol/min and the “Wax synthase Activity, Alcohol Group” value (jojoba wax synthase) was 100 pmol/min.
With `CCCCCCCCCCCCCC(=O)SCCNC(=O)CCNC(=O)[C@H](O)C(C)(C)COP(=O)(O)OP(=O)(O)OC[C@H]1O[C@@H](n2cnc3c(N)ncnc32)[C@H](O)[C@@H]1OP(=O)(O)O` [14:0] the “Wax synthase Activity, Acyl Group” value (jojoba wax synthase) was 95 pmol/min and the “Wax synthase Activity, Alcohol Group” value (jojoba wax synthase) was 145 pmol/min.
In the case of `CCCCCCCCCCCCCCCC(=O)SCCNC(=O)CCNC(=O)[C@H](O)C(C)(C)COP(=O)(O)OP(=O)(O)OC[C@H]1O[C@@H](n2cnc3c(N)ncnc32)[C@H](O)[C@@H]1OP(=O)(O)O` [16:0], the “Wax synthase Activity, Acyl Group” value (jojoba wax synthase) is reported as 81 pmol/min and the “Wax synthase Activity, Alcohol Group” value (jojoba wax synthase) is reported as 107 pmol/min.
In the case of `CCCCCCCCCCCCCCCCCC(=O)SCCNC(=O)CCNC(=O)[C@H](O)C(C)(C)COP(=O)(O)OP(=O)(O)OC[C@H]1O[C@@H](n2cnc3c(N)ncnc32)[C@H](O)[C@@H]1OP(=O)(O)O` [18:0], the “Wax synthase Activity, Acyl Group” value (jojoba wax synthase) is reported as 51 pmol/min and the “Wax synthase Activity, Alcohol Group” value (jojoba wax synthase) is reported as 56 pmol/min.
With `CCCCCCCCCCCCCCCCCCCC(=O)SCCNC(=O)CCNC(=O)[C@H](O)C(C)(C)COP(=O)(O)OP(=O)(O)OC[C@H]1O[C@@H](n2cnc3c(N)ncnc32)[C@H](O)[C@@H]1OP(=O)(O)O` [20:0] the “Wax synthase Activity, Acyl Group” value (jojoba wax synthase) was 49 pmol/min and the “Wax synthase Activity, Alcohol Group” value (jojoba wax synthase) was 21 pmol/min.
`CCCCCCCCCCCCCCCCCCCCCC(=O)SCCNC(=O)CCNC(=O)[C@H](O)C(C)(C)COP(=O)(O)OP(=O)(O)OC[C@H]1O[C@@H](n2cnc3c(N)ncnc32)[C@H](O)[C@@H]1OP(=O)(O)O` [22:0] was tested, and the “Wax synthase Activity, Acyl Group” value (jojoba wax synthase) was 46 pmol/min and the “Wax synthase Activity, Alcohol Group” value (jojoba wax synthase) was 17 pmol/min.
With `C[C@H](CCC(=O)NCCC[N+](C)(C)CCCS(=O)(=O)[O-])[C@H]1CC[C@H]2[C@@H]3[C@H](O)C[C@@H]4C[C@H](O)CC[C@]4(C)[C@H]3C[C@H](O)[C@]12C` [CHAPS, 3-[(3-cholamidopropyl)-dimethyl-ammonio]-1-propanesulfonate] the “effect on reductase enzyme activity” value [1] was “inhibition of enzyme activity”.
`NC(=O)CI` [Iodoacetamide] was tested, and the “effect of sulphydryl agents on wax synthase activity (inhibition)” value (from here on “effect of sulphydryl agents … (inhibition)”) (jojoba wax synthase) was “much less effective”.
`CCCCCCCCCCCCCCCC(=O)SCCNC(C)=O` [N-acetyl-S-palmitoyl cysteamine] was tested, and the “wax synthase activity towards acyl-thioester substrates” value (jojoba wax synthase; as acyl substrate) was “no activity was detectable”.
In the case of `CCNC(=O)/C=C\C(N)=O` [N-ethylmaleamide], the “effect of sulphydryl agents … (inhibition)” value (jojoba wax synthase) is reported as “much less effective”.
With `CCCCCCCCCCCCCCCC(=O)SCCNC(=O)CCNC(=O)[C@H](O)C(C)(C)COP(=O)(O)OP(=O)(O)OC[C@H]1O[C@@H](n2cnc3c(N)ncnc32)[C@H](O)[C@@H]1OP(=O)(O)O` [palmitoyl-CoA] the “wax synthase activity towards acyl-thioester substrates” value (jojoba wax synthase; as acyl substrate) was “greatest activity”.
For `O=C(O)c1cc[c]([Hg][OH])cc1` [para-hydroxymercuribenzoate], the “effect of sulphydryl agents … (inhibition)” value (jojoba wax synthase) was “Inhibition” and the “reversal of inhibition of wax synthase activity” value (jojoba wax synthase; subsequent addition of DTT) was “could be reversed”.
Compound “jojoba wax synthase (microsomal membrane fraction having wax synthase activity) (pool or library)” has a wax synthase activity (% of that with acyl-CoA) (palmitoyl-ACP) of 10.
With palmitoyl-ACP the “wax synthase activity relative to acyl-CoA” value (jojoba wax synthase; as acyl substrate) was ~10 % of that with acyl-CoA.
